US20230203060A1 (GENFLEET THERAPEUTICS (SHANGHAI) INC., priority 2020, published 2023)
pIC50: −log10 of the molar value.

How the values were obtained:
[1] = test system: KRAS G12C mutant MIA PaCa-2 cells; test: Cell proliferation inhibition experiment, 3D spheroid, CellTiter-Glo, MIA PaCa-2; assay type: cell-based, human; conditions: Homo sapiens, MIA PaCa-2, 120 h, 3D cell model in 384-well spheroid plate, 5 days, CellTiter-Glo; read-out: MIA-PaCa2 IC50
Summary of the method: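 Luminescent ATP read-out (CellTiter-Glo) after 5-day compound treatment of spheroids formed overnight from 200 MIA PaCa-2 cells/well; compounds in 3.16-fold series, 0.1% DMSO final. IC50 derived by four-parameter fit of percent inhibition, normalized to DMSO control and medium blank.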

[2] = test system: A549 cells (KRAS G12S mutant); test: Cell proliferation inhibition experiment, 3D spheroid, CellTiter-Glo, A549; assay type: cell-based, human; conditions: Homo sapiens, A549, 120 h, A549 (KRAS G12S mutant) 3D spheroid, 5 days with compound, CellTiter-Glo; read-out: A549 IC50
Summary of the method: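 IC50 values come from four-parameter fits of proliferation inhibition, measured by CellTiter-Glo after 5-day compound exposure. Spheroids of H358 (800 cells) or A549 (400 cells) were formed overnight in 2% FBS medium; DMSO held at 0.1%, doses spaced 3.16-fold.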

pIC50 [1]	pIC50 [2]	Structure (SMILES)
8.05	4.55	C=CC(=O)N1CCN2C(=O)c3c(N4CCN(CCOC)C[C@@H]4C)nc(-c4c(O)cccc4F)c(Cl)c3OC[C@H]2C1 [Z257a, (6aR)-8-acryloyl-4-chloro-3-(2-fluoro-6-hydroxyphenyl)-1-((S)-4-(2-methoxyethyl)-2-methylpiperazin-1-yl)-6,6a,7,8,9,10-hexahydro-12H-pyrazino[2,1-c]pyrido[3,4-f][1,4]oxazepin-12-one]
8.52	5.43	C=CC(=O)N1CCN2C(=O)c3c(N4CC(N5CCOCC5)CC4(C)C)nc(-c4c(O)cccc4F)c(Cl)c3OC[C@H]2C1 (stereo partly drawn) [Z344, (6aR)-8-acryloyl-4-chloro-1-((2,2-dimethyl-4-morpholinopyrrolidin-1-yl))-3-(2-fluoro-6-hydroxyphenyl)-6,6a,7,8,9,10-hexahydro-12H-pyrazino[2,1-c]pyrido[3,4-f][1,4]oxazepin-12-one]
8.59	< 4.52	C=CC(=O)N1CCN2C(=O)c3c(N4CCN(C(C)=O)C[C@@H]4C)nc(-c4c(O)cccc4F)c(Cl)c3OC[C@H]2C1 [Z313-1]
8.96	5.48	C=CC(=O)N1CCN2C(=O)c3c(N4CC(N(C)CCOC)CC4(C)C)nc(-c4c(O)cccc4F)c(Cl)c3OCC2C1 (single isomer, unassigned) [Z296-1]
7.81	< 4.52	C=CC(=O)N1CCN2C(=O)c3c(N4C[C@H](O)CC4(C)C)nc(-c4ccccc4F)c(Cl)c3OC[C@H]2C1 (single isomer, unassigned) [Z325-2]
8.82	5.52	C=CC(=O)N1CCN2C(=O)c3c(N4CC[C@@H](OC)C4(C)C)nc(-c4c(O)cccc4F)c(Cl)c3OC[C@H]2C1 (single isomer, unassigned) [Z241a-2]
8.48	< 5.00	C=CC(=O)N1CCN2C(=O)c3c(N4C[C@H](CO)CC4(C)C)nc(-c4c(O)cccc4F)c(Cl)c3OC[C@H]2C1 (single isomer, unassigned) [Z240-2]
7.79	5.02	C=CC(=O)N1CCN2C(=O)c3c(N4CC[C@H](OC)C4(C)C)nc(-c4c(O)cccc4F)c(F)c3OC[C@H]2C1 (single isomer, unassigned) [Z327-2]
8.11	4.84	C=CC(=O)N1CCN2C(=O)c3c(N4CCN(C)[C@H](C)[C@@H]4C)nc(-c4c(O)cccc4F)c(Cl)c3OC[C@H]2C1 (single isomer, unassigned) [Z308a-1]
8.37	5.02	C=CC(=O)N1CCN2C(=O)c3c(N4CC[C@H](OC)C4(C)C)nc(-c4c(O)cccc4F)c(Cl)c3OC[C@H]2C1 (single isomer, unassigned) [Z241a-1]
8.10	5.54	C=CC(=O)N1CCN2C(=O)c3c(N4C[C@@H](OC)CC4(C)C)nc(-c4c(O)cccc4F)c(Cl)c3OC[C@H]2C1 (single isomer, unassigned) [Z244-1]
7.19	< 4.70	C=CC(=O)N1CCN2C(=O)c3c(N4CCC(C)(C)C4)nc(-c4c(O)cccc4F)c(Cl)c3OC[C@H]2C1 [Z21, (6aR)-8-acryloyl-4-chloro-1-(3,3-dimethylpyrrolidin-1-yl)-3-(2-fluoro-6-hydroxyphenyl)-6,6a,7,8,9,10-hexahydro-12H-pyrazino[2,1-c]pyrido[3,4-f][1,4]oxazepin-12-one]
8.42	5.03	C=CC(=O)N1CCN2C(=O)c3c(N4C[C@H](OC)CC4(C)C)nc(-c4c(O)cccc4F)c(F)c3OC[C@H]2C1 (single isomer, unassigned) [Z256a-2]
7.96	5.26	C=CC(=O)N1CCN2C(=O)c3c(N4C[C@@H](O)CC4(C)C)nc(-c4c(O)ccc(Cl)c4F)c(F)c3OC[C@H]2C1 (single isomer, unassigned) [Z340-1]
